Results reported in patent US12409126B2, “Ginsenoside-containing composition, daily-use chemical and use thereof” (InCipirit Tech (Guangzhou) Co., Ltd., priority 2023, dated 2025).
Where a name gives a salt, the structure may show the parent alone.

System: human epidermal keratinocytes
Test: Epidermal keratinocyte proliferation in dermal papilla cell and epidermal keratinocyte double-layer culture system
Assay type: cell-based
Details: 0.2 μg/ml, 2 μg/ml, 20 μg/ml, 200 μg/ml
Description: 500 μl of human epidermal keratinocytes (30,000 cells/ml) were added to each well of MULTIWELL 24well, followed by the addition of 1.0 μm of cell culture inserts for culture for 1 day. 300 μl of dermal papilla cells (20,000 cells/ml) had been added in the 1.0 μm of cell culture inserts. each 1 μl/well of the Radix et Rhizoma Ginseng extracts 1-7, the positive control (minoxidil sulfate) and the blank control (DMSO) was then added for continued culture for 3 days. After removal of the 1.0 μm of cell culture inserts, 50 μl/well of Cell Counting Kit-8 (Dojindo Laboratories) was added for continued culture for 2 hours, and the cell number was determined using a microplate reader (450 nm, Mix0).

Question: With Nc1cc(N2CCCCC2)nc(N)[n+]1OS(=O)(=O)[O-] [Minoxidil sulfate, minoxidil sulfate] as the compound, how does the “epidermal keratinocyte proliferation in double-layer culture system” value read?
Answer: no effect in promoting keratinocyte proliferation
